Test results as given in patent US7192918B2, “Tripeptide and tetrapeptide sulfones” (Telik, Inc., priority 2005, dated 2007).
“Also recorded” adds a separate entry of the source.

Key:
[1] = both in vitro and in vivo; cited from earlier work
HL-60 cells [2] = conditions: background statement; cited from earlier work
HL-60 cells [3] = experiment: Enhancement of differentiation of HL-60 cells (CD11b surface expression, flow cytometry); assay type: cell-based, human; conditions: diethyl esters, 24 hours
Protocol: Some of the diethyl ester compounds of this invention were also tested for their ability to enhance the differentiation of HL-60 cells. This illustrates the beneficial effect of the compounds of this invention in stimulating differentiation of the HL-60 human leukemia cell line in vitro. […] The cells were harvested by centrifugation (1250 rpm for 5 min at 20° C.) and washed with 2 mL ice-cold phosphate-buffered saline (PBS) containing 2% FBS, then stained with 10 μL phycoerythrin-conjugated anti-CD11b antibody or 10 μL phycoerythrin-conjugated isotype control antibody. After standing for 30 min on ice, the cells were re-suspended in 2 mL ice-cold PBS containing 2% FBS. The cells were harvested by centrifugation (1250 rpm for 5 min at 20° C.) and resuspended in 0.4 mL PBS containing 2% FBS. The specific cell surface expression of CD11b, a marker for granulocytes and monocytes, was detected by flow cytometry using a FACSCalibur analyzer (BD Biosciences). All assays were conducted in triplicate, with DMSO control. The extent of differentiation was expressed as a multiple of the signal from the DMSO control.

[4] = Phase II, interim results; cited from earlier work
[5] = molecular target: T1, Recombinant human GST A1-1 (Homo sapiens, UniProt P08263); experiment: Inhibition of glutathione S-transferase isoenzyme GST A1-1 (CDNB/GSH, absorbance at 340 nm); assay type: biochemical; conditions: diacids (row number n = compound nA), pH 6.5, 2% DMSO
T1 construct: purchased EMD Biosciences, Inc., San Diego, Calif., U.S.A
T1 sequence (P08263 1-222): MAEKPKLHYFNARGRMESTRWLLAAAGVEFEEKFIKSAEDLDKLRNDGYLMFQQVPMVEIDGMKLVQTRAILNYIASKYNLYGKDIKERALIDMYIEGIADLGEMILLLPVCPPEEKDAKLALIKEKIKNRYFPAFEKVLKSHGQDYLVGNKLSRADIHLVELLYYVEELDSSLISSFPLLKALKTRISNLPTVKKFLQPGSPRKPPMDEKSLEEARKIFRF
Protocol: (§1) In vitro Example 1. Inhibition of glutathione S-transferase isoenzymes. […] For each assay, the test compound and GSH were added to the isoenzyme. Immediately after the addition of CDNB solution to the isoenzyme/compound/GSH solution, the absorbance at 340 nm was recorded continuously for 5 min on a SpectraMax plate reader (Molecular Devices, Inc., Sunnyvale, Calif., U.S.A.). The GST inhibitory activity of each compound was calculated from the slopes of the absorbance/time curves at the various concentrations of test compound. All assays were conducted in duplicate wells, with DMSO control, with the final DMSO concentration maintained at 2%.

[6] = molecular target: T2, Recombinant human GST P1-1 (Homo sapiens, UniProt P09211); experiment: Inhibition of glutathione S-transferase isoenzyme GST P1-1 (CDNB/GSH, absorbance at 340 nm); assay type: biochemical; conditions: diacids (row number n = compound nA), pH 6.5, 2% DMSO
T2 construct: purchased EMD Biosciences, Inc., San Diego, Calif., U.S.A
Protocol: as §1

[7] = molecular target: T3, Recombinant human GST M1-1 (Homo sapiens, UniProt P09488); experiment: Inhibition of glutathione S-transferase isoenzyme GST M1-1 (CDNB/GSH, absorbance at 340 nm); assay type: biochemical; conditions: diacids (row number n = compound nA), pH 6.5, 2% DMSO
T3 construct: purchased EMD Biosciences, Inc., San Diego, Calif., U.S.A
T3 sequence (P09488 2-218 limits assumed): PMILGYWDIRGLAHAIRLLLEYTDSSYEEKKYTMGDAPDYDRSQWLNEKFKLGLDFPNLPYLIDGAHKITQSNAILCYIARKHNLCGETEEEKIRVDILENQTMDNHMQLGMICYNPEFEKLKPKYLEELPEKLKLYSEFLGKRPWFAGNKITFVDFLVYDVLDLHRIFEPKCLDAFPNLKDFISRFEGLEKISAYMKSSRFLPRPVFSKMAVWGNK
Protocol: as §1

T2 sequence (P09211 2-210 limits assumed): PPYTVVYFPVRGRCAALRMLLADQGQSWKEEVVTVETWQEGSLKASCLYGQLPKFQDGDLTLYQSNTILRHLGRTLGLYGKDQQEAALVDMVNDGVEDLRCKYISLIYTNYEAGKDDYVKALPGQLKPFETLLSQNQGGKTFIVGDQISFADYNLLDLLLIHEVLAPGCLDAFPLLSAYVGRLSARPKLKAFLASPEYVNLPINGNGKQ

| IC50 [5] [µM] | IC50 [6] [µM] | IC50 [7] [µM] | SMILES | Potentiation of the activity of cytotoxic agents [1] | Differentiation of HL-60 promyelocytic leukemia cells in vitro (HL-60 cells [2]) | Differentiation of HL-60 cells (CD11b expression as multiple of DMSO control) (HL-60 cells [3]) | Hematologic response in humans [4] | Tolerability in MDS patients [4] |
| --- | --- | --- | --- | --- | --- | --- | --- | --- |
| – | – | – | CCOC(=O)[C@@H](N)CCC(=O)N[C@@H](CSCc1ccccc1)C(=O)N[C@@H](C(=O)OCC)c1ccccc1 [TLK199] | chemopotentiation activity in an animal model | induce the differentiation of HL-60 promyelocytic leukemia cells | enhances differentiation | myelostimulant activity in humans; also recorded: multilineage hematologic improvement | well tolerated |
| 52 | 3.2 | 100 | N[C@@H](CCC(=O)N[C@@H](CS(=O)(=O)Cc1ccc([N+](=O)[O-])o1)C(=O)N[C@@H](C(=O)O)c1ccccc1)C(=O)O [Compound 14A, L-γ-glutamyl-3-[(5-nitrofuran-2-ylmethyl)sulfonyl]-L-alanyl-D-phenylglycine] | – | – | – | – | – |
